Results: ChEMBL document CHEMBL5365394, “Design, synthesis and biological evaluation of novel spiro-quinazolinone derivatives as chitin synthase inhibitors and antifungal agents” (Eur J Med Chem, 2023)
In brackets after ≈: the same amount, converted by molar mass. *1 amine or outer side, *2 acyl side, *3 side chain or, on linkers, in order; H or OH if unused. Where a SMILES comes first, the peptide text is derived from it. Bridges are numbered along the chain shown (N, C = ends). [ ]: non-standard residue; d: D form. The star is where a group is joined. hTyr(3S-OH,4S-OH,3'-OSO3H) = N[C@H](C(=O)O)[C@H](O)[C@@H](O)c1ccc(O)c(OS(=O)(=O)O)c1; Orn(4R-OH,5R-OH) = O=C([C@H](C[C@@H](O)[C@@H](O)N[*:3])N[*:1])[*:2]; Pro(3S-OH,4S-Me) = C[C@H]1CN[C@H](C(=O)O)[C@H]1O; X1 = CCCCCOc1ccc(-c2cc(-c3ccc(C(=O)*)cc3)no2)cc1; Gln(3R-OH) = NC(=O)C[C@@H](O)[C@H](N)C(=O)O; Hyp = O=C(O)[C@@H]1C[C@@H](O)CN1

Assays:
Aspergillus flavus [1] = test: Antifungal activity against Aspergillus flavus ATCC 16870 assessed as fungal growth inhibition incubated for 24 hrs by two-fold serial dilution method; type: functional
Candida albicans [2] = test: Antifungal activity against Fluconazole-resistant Candida albicans ATCC 76615R assessed as fungal growth inhibition; type: functional
Cryptococcus neoformans [3] = test: Antifungal activity against Fluconazole-resistant Cryptococcus neoformans ATCC 32719R assessed as fungal growth inhibition; type: functional
Aspergillus fumigatus [4] = test: Antifungal activity against Aspergillus fumigatus GIMCC 3.19 assessed as fungal growth inhibition incubated for 24 hrs by two-fold serial dilution method; type: functional
Candida albicans [5] = test: Antifungal activity against Candida albicans ATCC 76615 assessed as fungal growth inhibition incubated for 24 hrs by two-fold serial dilution method; type: functional
Aspergillus fumigatus [6] = test: Antifungal activity against Fluconazole-resistant Aspergillus fumigatus GIMCC 3.19R assessed as fungal growth inhibition; type: functional
Aspergillus flavus [7] = test: Antifungal activity against Fluconazole-resistant Aspergillus flavus ATCC 16870R assessed as fungal growth inhibition; type: functional
Cryptococcus neoformans [8] = test: Antifungal activity against Cryptococcus neoformans ATCC 32719 assessed as fungal growth inhibition incubated for 24 hrs by two-fold serial dilution method; type: functional
Candida albicans [9] = test: Antifungal activity against Micafungin-resistant Candida albicans ATCC 76615R assessed as fungal growth inhibition; type: functional
Candida tropicalis = test: Inhibition of Candida tropicalis ATCC 750 chitin synthase using […] as substrate at 300 ug/ml incubated for 1 hr by absorbance based assay relative to control; conditions: dose 300.0 µg/ml
[10] = Inhibition of Candida tropicalis ATCC 750 chitin synthase using UDP-GlcNAc as substrate incubated for 1 hr by absorbance based assay

OC(Cn1cncn1)(Cn1cncn1)c1ccc(F)cc1F [FLUCONAZOLE]
MIC (Aspergillus flavus [1]): 4 µg/mL (≈ 13.1 µM)
MIC (Candida albicans [2]): 256 µg/mL (≈ 836 µM)
MIC (Cryptococcus neoformans [3]): 256 µg/mL (≈ 836 µM)
MIC (Aspergillus fumigatus [4]): 8 µg/mL (≈ 26.1 µM)
MIC (Candida albicans [5]): 2 µg/mL (≈ 6.53 µM)
MIC (Aspergillus fumigatus [6]): 256 µg/mL (≈ 836 µM)
MIC (Aspergillus flavus [7]): 256 µg/mL (≈ 836 µM)
MIC (Cryptococcus neoformans [8]): 4 µg/mL (≈ 13.1 µM)

CCCCCOc1ccc(-c2cc(-c3ccc(C(=O)N[C@H]4C[C@@H](O)[C@@H](O)NC(=O)[C@@H]5[C@@H](O)[C@@H](C)CN5C(=O)[C@H]([C@H](O)CC(N)=O)NC(=O)[C@H]([C@H](O)[C@@H](O)c5ccc(O)c(OS(=O)(=O)O)c5)NC(=O)[C@@H]5C[C@@H](O)CN5C(=O)[C@H]([C@@H](C)O)NC4=O)cc3)no2)cc1 [MICAFUNGIN] (X1-[Orn(4R-OH,5R-OH)]T[Hyp][hTyr(3S-OH,4S-OH,3'-OSO3H)][Gln(3R-OH)][Pro(3S-OH,4S-Me)]; lactam 1-C)
MIC (Candida albicans [9]): 256 µg/mL (≈ 202 µM)

O=C(/C=C/C(=O)Nc1ccccc1Cl)Nc1ccc2c(c1)C(=O)NC1(CCCC1)N2
MIC (Aspergillus flavus [1]): 256 µg/mL (≈ 603 µM)
MIC (Aspergillus fumigatus [4]): 256 µg/mL (≈ 603 µM)
MIC (Candida albicans [5]): 128 µg/mL (≈ 301 µM)
MIC (Cryptococcus neoformans [8]): 128 µg/mL (≈ 301 µM)
inhibition (Candida tropicalis): 38.7%

O=C(/C=C/C(=O)Nc1ccc2c(c1)C(=O)NC1(CCOC1)N2)Nc1ccc(Br)cc1 (stereo not given)
MIC (Aspergillus flavus [1]): 64 µg/mL (≈ 136 µM)
MIC (Aspergillus fumigatus [4]): 64 µg/mL (≈ 136 µM)
MIC (Candida albicans [5]): 32 µg/mL (≈ 67.9 µM)
MIC (Cryptococcus neoformans [8]): 32 µg/mL (≈ 67.9 µM)
inhibition (Candida tropicalis): 63.1%

O=C(/C=C/C(=O)Nc1ccccc1Cl)Nc1ccc2c(c1)C(=O)NC1(CCSC1)N2 (stereo not given)
IC50 [10]: 420 µM
MIC (Aspergillus flavus [1]): 64 µg/mL (≈ 144 µM)
MIC (Aspergillus fumigatus [4]): 64 µg/mL (≈ 144 µM)
MIC (Candida albicans [5]): 32 µg/mL (≈ 72.2 µM)
MIC (Cryptococcus neoformans [8]): 64 µg/mL (≈ 144 µM)
inhibition (Candida tropicalis): 58.4%

O=C(/C=C/C(=O)Nc1ccc2c(c1)C(=O)NC1(CCSC1)N2)Nc1ccc(Cl)cc1 (stereo not given)
IC50 [10]: 433 µM
MIC (Aspergillus flavus [1]): 128 µg/mL (≈ 289 µM)
MIC (Aspergillus fumigatus [4]): 64 µg/mL (≈ 144 µM)
MIC (Candida albicans [5]): 64 µg/mL (≈ 144 µM)
MIC (Cryptococcus neoformans [8]): 64 µg/mL (≈ 144 µM)
inhibition (Candida tropicalis): 58%

O=C(/C=C/C(=O)Nc1ccccc1F)Nc1ccc2c(c1)C(=O)NC1(CCSC1)N2 (stereo not given)
IC50 [10]: 653 µM
MIC (Aspergillus flavus [1]): 128 µg/mL (≈ 300 µM)
MIC (Aspergillus fumigatus [4]): 128 µg/mL (≈ 300 µM)
MIC (Candida albicans [5]): 64 µg/mL (≈ 150 µM)
MIC (Cryptococcus neoformans [8]): 128 µg/mL (≈ 300 µM)
inhibition (Candida tropicalis): 52.2%

O=C(/C=C/C(=O)Nc1ccc2c(c1)C(=O)NC1(CCSC1)N2)Nc1ccc(F)c(Cl)c1 (stereo not given)
IC50 [10]: 267 µM
MIC (Aspergillus flavus [1]): 32 µg/mL (≈ 69.4 µM)
MIC (Aspergillus fumigatus [4]): 64 µg/mL (≈ 139 µM)
MIC (Candida albicans [5]): 16 µg/mL (≈ 34.7 µM)
MIC (Cryptococcus neoformans [8]): 32 µg/mL (≈ 69.4 µM)
inhibition (Candida tropicalis): 64.4%

O=C(/C=C/C(=O)Nc1ccc2c(c1)C(=O)NC1(CCSC1)N2)Nc1ccc(F)cc1 (stereo not given)
IC50 [10]: 593 µM
MIC (Aspergillus flavus [1]): 128 µg/mL (≈ 300 µM)
MIC (Aspergillus fumigatus [4]): 128 µg/mL (≈ 300 µM)
MIC (Candida albicans [5]): 64 µg/mL (≈ 150 µM)
MIC (Cryptococcus neoformans [8]): 64 µg/mL (≈ 150 µM)
inhibition (Candida tropicalis): 54.6%

O=C(/C=C/C(=O)Nc1ccc2c(c1)C(=O)NC1(CCSC1)N2)Nc1cccc(Cl)c1 (stereo not given)
IC50 [10]: 282 µM
MIC (Aspergillus flavus [1]): 64 µg/mL (≈ 144 µM)
MIC (Aspergillus fumigatus [4]): 32 µg/mL (≈ 72.2 µM)
MIC (Candida albicans [5]): 32 µg/mL (≈ 72.2 µM)
MIC (Cryptococcus neoformans [8]): 64 µg/mL (≈ 144 µM)
inhibition (Candida tropicalis): 60.9%

O=C(/C=C/C(=O)Nc1ccccc1Cl)Nc1ccc2c(c1)C(=O)NC1(CCOC1)N2 (stereo not given)
MIC (Aspergillus flavus [1]): 128 µg/mL (≈ 300 µM)
MIC (Aspergillus fumigatus [4]): 64 µg/mL (≈ 150 µM)
MIC (Candida albicans [5]): 128 µg/mL (≈ 300 µM)
MIC (Cryptococcus neoformans [8]): 128 µg/mL (≈ 300 µM)
inhibition (Candida tropicalis): 53.7%

O=C(/C=C/C(=O)Nc1ccc2c(c1)C(=O)NC1(CCCC1)N2)Nc1ccc(Cl)cc1
MIC (Aspergillus flavus [1]): 128 µg/mL (≈ 301 µM)
MIC (Aspergillus fumigatus [4]): 128 µg/mL (≈ 301 µM)
MIC (Candida albicans [5]): 256 µg/mL (≈ 603 µM)
MIC (Cryptococcus neoformans [8]): 128 µg/mL (≈ 301 µM)
inhibition (Candida tropicalis): 43.1%

Cc1ccc(NC(=O)/C=C/C(=O)Nc2ccc3c(c2)C(=O)NC2(CCSC2)N3)cc1 (stereo not given)
IC50 [10]: 883 µM
MIC (Aspergillus flavus [1]): 128 µg/mL (≈ 303 µM)
MIC (Aspergillus fumigatus [4]): 128 µg/mL (≈ 303 µM)
MIC (Candida albicans [5]): 64 µg/mL (≈ 151 µM)
MIC (Cryptococcus neoformans [8]): 128 µg/mL (≈ 303 µM)
inhibition (Candida tropicalis): 48.2%

O=C(/C=C/C(=O)Nc1ccc2c(c1)C(=O)NC1(CCSC1)N2)Nc1ccccc1 (stereo not given)
IC50 [10]: 1870 µM
MIC (Aspergillus flavus [1]): 256 µg/mL (≈ 627 µM)
MIC (Aspergillus fumigatus [4]): 128 µg/mL (≈ 313 µM)
MIC (Candida albicans [5]): 128 µg/mL (≈ 313 µM)
MIC (Cryptococcus neoformans [8]): 128 µg/mL (≈ 313 µM)
inhibition (Candida tropicalis): 44.2%

Cc1cccc(NC(=O)/C=C/C(=O)Nc2ccc3c(c2)C(=O)NC2(CCSC2)N3)c1 (stereo not given)
IC50 [10]: 800 µM
MIC (Aspergillus flavus [1]): 128 µg/mL (≈ 303 µM)
MIC (Aspergillus fumigatus [4]): 128 µg/mL (≈ 303 µM)
MIC (Candida albicans [5]): 64 µg/mL (≈ 151 µM)
MIC (Cryptococcus neoformans [8]): 64 µg/mL (≈ 151 µM)
inhibition (Candida tropicalis): 47.2%

O=C(/C=C/C(=O)Nc1ccc2c(c1)C(=O)NC1(CCOC1)N2)Nc1ccc(Cl)cc1 (stereo not given)
MIC (Aspergillus flavus [1]): 128 µg/mL (≈ 300 µM)
MIC (Aspergillus fumigatus [4]): 128 µg/mL (≈ 300 µM)
MIC (Candida albicans [5]): 128 µg/mL (≈ 300 µM)
MIC (Cryptococcus neoformans [8]): 128 µg/mL (≈ 300 µM)
inhibition (Candida tropicalis): 49.2%

O=C(/C=C/C(=O)Nc1ccc2c(c1)C(=O)NC1(CCSC1)N2)Nc1cccc(C(F)(F)F)c1 (stereo not given)
IC50 [10]: 353 µM
MIC (Aspergillus flavus [1]): 64 µg/mL (≈ 134 µM)
MIC (Aspergillus fumigatus [4]): 64 µg/mL (≈ 134 µM)
MIC (Candida albicans [5]): 128 µg/mL (≈ 269 µM)
MIC (Cryptococcus neoformans [8]): 64 µg/mL (≈ 134 µM)
inhibition (Candida tropicalis): 58.1%

O=C(/C=C/C(=O)Nc1ccc2c(c1)C(=O)NC1(CCOC1)N2)Nc1ccc(F)c(Cl)c1 (stereo not given)
MIC (Aspergillus flavus [1]): 64 µg/mL (≈ 144 µM)
MIC (Aspergillus fumigatus [4]): 64 µg/mL (≈ 144 µM)
MIC (Candida albicans [5]): 128 µg/mL (≈ 288 µM)
MIC (Cryptococcus neoformans [8]): 128 µg/mL (≈ 288 µM)
inhibition (Candida tropicalis): 56.8%

O=C(/C=C/C(=O)Nc1ccc2c(c1)C(=O)NC1(CCCC1)N2)Nc1ccc(F)c(Cl)c1
MIC (Aspergillus flavus [1]): 128 µg/mL (≈ 289 µM)
MIC (Aspergillus fumigatus [4]): 128 µg/mL (≈ 289 µM)
MIC (Candida albicans [5]): 128 µg/mL (≈ 289 µM)
MIC (Cryptococcus neoformans [8]): 128 µg/mL (≈ 289 µM)
inhibition (Candida tropicalis): 48.2%

O=C(/C=C/C(=O)Nc1ccc2c(c1)C(=O)NC1(CCCC1)N2)Nc1ccc(Br)cc1
MIC (Aspergillus flavus [1]): 128 µg/mL (≈ 273 µM)
MIC (Aspergillus fumigatus [4]): 128 µg/mL (≈ 273 µM)
MIC (Candida albicans [5]): 128 µg/mL (≈ 273 µM)
MIC (Cryptococcus neoformans [8]): 64 µg/mL (≈ 136 µM)
inhibition (Candida tropicalis): 56.4%

O=C(/C=C/C(=O)Nc1ccc2c(c1)C(=O)NC1(CCSC1)N2)Nc1cccc(Br)c1 (stereo not given)
IC50 [10]: 153 µM
MIC (Aspergillus flavus [1]): 32 µg/mL (≈ 65.7 µM)
MIC (Aspergillus fumigatus [4]): 64 µg/mL (≈ 131 µM)
MIC (Candida albicans [5]): 32 µg/mL (≈ 65.7 µM)
MIC (Cryptococcus neoformans [8]): 32 µg/mL (≈ 65.7 µM)
inhibition (Candida tropicalis): 67.5%
